# Measurements as given in PMC8402619 (Viruses, 2021).
# pIC50: −log10 of the molar value.
# Legend:
# [1] = Plasma protein binding by equilibrium dialysis, monkey plasma; type: in vitro ADME; details: pH 7.4
# [2] = Renal clearance after 1 mg/kg intravenous, rat; type: in vivo, male Wistar-Hannover rats; details: 1 mg/kg intravenously
# OAT3 = molecular target: T1, OAT3 (Homo sapiens, UniProt Q8TCC7); test: Inhibition of transporter-mediated probe uptake in MDCKII-OAT3 cells; type: in vitro ADME
# T1 construct: expressed in transfected cells; host or cells: MDCKII
# T1 sequence (Q8TCC7 1-542): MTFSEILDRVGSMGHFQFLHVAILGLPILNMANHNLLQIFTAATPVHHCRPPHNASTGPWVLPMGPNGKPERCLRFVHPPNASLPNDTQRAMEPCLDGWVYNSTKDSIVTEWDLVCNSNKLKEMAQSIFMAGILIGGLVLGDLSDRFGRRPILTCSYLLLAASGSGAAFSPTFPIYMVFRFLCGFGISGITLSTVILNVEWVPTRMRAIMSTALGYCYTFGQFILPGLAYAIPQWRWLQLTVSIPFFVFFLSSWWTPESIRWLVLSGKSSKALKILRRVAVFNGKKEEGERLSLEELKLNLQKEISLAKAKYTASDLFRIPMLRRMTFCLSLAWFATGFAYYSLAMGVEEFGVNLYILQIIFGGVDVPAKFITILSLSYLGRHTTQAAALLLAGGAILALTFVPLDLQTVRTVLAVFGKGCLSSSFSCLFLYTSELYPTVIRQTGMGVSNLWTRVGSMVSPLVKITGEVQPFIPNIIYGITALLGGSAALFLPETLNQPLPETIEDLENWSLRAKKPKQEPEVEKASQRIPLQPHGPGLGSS
# [3] = Renal clearance after 1 mg/kg intravenous, monkey; type: in vivo, rhesus monkeys; details: rhesus monkey, 1 mg/kg intravenously
# MATE2K = molecular target: T2, MATE2K (Homo sapiens, UniProt Q86VL8); test: Inhibition of transporter-mediated probe uptake in MDCKII-MATE2K cells; type: in vitro ADME
# T2 construct: expressed in transfected cells; host or cells: MDCKII
# CYP1A2 = molecular target: T3, CYP1A2 (Homo sapiens, UniProt P05177); test: Time-dependent CYP inhibition in pooled human liver microsomes; type: in vitro ADME
# T3 sequence (P05177 1-516): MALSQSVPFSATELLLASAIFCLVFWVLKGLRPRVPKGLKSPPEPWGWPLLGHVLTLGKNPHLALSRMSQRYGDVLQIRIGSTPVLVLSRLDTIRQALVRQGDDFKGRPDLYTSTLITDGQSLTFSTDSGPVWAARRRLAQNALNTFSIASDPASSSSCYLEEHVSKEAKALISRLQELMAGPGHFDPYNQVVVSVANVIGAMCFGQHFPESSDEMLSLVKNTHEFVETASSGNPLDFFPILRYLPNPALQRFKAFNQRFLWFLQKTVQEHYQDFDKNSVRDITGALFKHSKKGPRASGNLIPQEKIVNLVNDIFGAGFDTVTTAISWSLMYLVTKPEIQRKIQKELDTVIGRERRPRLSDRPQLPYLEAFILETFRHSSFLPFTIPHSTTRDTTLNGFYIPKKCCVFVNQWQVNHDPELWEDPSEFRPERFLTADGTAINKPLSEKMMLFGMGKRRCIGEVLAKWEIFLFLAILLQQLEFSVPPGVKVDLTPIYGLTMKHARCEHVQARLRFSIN
# MDR1 P-gp = MDR1 P-gp (Homo sapiens, UniProt P08183); test: Uptake in MDR1 P-gp-containing Sf9 membrane vesicles (substrate); type: in vitro ADME; design: expressed in transfected cells
# CYP2B6 = molecular target: T4, CYP2B6 (Homo sapiens, UniProt P20813); test: Time-dependent CYP inhibition in pooled human liver microsomes; type: in vitro ADME
# T4 sequence (P20813 1-491): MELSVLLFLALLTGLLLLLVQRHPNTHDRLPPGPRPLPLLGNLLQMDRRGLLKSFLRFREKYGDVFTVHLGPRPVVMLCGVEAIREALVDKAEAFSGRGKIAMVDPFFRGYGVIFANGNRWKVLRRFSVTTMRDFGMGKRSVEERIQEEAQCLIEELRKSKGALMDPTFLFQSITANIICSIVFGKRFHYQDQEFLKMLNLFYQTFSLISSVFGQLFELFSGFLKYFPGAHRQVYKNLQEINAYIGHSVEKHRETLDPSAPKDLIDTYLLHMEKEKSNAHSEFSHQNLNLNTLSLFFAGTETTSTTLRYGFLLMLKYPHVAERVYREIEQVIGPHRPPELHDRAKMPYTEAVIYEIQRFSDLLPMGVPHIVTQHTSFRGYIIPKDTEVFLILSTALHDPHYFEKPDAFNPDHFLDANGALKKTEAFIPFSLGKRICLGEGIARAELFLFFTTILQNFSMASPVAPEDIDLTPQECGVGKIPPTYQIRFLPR
# [4] = [14C]islatravir 5 µM, presence of ATP, 10 min, mean ± standard deviation
# T2 sequence (Q86VL8 1-566 isoform Q86VL8-3): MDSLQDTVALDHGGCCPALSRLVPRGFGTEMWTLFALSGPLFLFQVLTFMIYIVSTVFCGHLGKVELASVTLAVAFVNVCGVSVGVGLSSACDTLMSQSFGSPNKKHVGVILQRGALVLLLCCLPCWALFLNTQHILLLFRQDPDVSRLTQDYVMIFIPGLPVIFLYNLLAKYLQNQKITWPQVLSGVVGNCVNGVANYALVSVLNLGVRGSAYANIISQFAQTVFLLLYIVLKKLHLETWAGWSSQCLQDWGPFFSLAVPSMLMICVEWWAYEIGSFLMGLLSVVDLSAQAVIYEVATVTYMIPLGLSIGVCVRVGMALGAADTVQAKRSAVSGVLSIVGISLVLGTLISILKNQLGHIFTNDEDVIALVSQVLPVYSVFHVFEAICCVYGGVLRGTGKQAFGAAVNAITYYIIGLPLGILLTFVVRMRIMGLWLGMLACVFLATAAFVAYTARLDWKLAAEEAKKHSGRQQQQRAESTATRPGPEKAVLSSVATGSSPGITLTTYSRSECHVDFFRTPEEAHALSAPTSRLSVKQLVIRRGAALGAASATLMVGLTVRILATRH
# Chain of MDR1 P-gp (P08183 whole entry): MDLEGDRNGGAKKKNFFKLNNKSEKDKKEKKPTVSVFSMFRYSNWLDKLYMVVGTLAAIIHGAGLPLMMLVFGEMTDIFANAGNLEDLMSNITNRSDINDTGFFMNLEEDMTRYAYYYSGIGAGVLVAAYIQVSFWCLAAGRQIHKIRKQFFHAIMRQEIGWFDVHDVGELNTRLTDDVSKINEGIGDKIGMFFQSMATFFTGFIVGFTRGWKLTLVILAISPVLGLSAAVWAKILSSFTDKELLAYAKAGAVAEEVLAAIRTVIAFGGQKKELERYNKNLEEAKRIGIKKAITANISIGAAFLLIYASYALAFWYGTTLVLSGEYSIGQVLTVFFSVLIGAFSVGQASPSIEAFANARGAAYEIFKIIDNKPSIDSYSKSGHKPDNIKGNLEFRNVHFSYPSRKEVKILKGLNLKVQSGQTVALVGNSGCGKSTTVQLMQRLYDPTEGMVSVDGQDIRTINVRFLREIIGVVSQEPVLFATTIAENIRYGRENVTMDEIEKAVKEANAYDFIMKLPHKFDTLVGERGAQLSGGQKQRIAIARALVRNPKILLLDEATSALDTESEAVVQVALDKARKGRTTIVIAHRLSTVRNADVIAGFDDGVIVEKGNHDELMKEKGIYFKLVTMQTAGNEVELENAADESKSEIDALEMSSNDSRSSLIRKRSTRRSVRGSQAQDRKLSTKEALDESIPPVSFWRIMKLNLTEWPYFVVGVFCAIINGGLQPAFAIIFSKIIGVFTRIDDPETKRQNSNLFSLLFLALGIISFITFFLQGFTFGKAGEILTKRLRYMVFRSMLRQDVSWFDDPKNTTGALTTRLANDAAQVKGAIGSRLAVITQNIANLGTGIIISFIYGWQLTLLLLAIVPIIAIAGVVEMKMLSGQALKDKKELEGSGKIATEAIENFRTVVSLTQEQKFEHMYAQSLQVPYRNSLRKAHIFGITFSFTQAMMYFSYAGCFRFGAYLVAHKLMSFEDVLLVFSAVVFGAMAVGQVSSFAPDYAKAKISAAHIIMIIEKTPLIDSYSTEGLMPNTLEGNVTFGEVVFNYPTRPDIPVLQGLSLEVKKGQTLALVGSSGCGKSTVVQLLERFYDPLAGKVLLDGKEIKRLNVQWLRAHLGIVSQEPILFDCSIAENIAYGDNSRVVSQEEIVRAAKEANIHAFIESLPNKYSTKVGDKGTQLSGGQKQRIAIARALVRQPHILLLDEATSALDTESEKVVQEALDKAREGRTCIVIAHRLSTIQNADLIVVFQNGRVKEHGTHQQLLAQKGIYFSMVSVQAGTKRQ
compound,measurement,setting,value
"C#C[C@]1(CO)O[C@@H](n2cnc3c(N)nc(F)nc32)C[C@@H]1O [Islatravir, 4′-Ethynyl-2-fluoro-2′-deoxyadenosine]","fraction unbound at 24 h, 0.1 µM",[1],> 0.84
same,Renal Excretion (% Total Plasma Clearance),[2],17%
same,CL renal,"[2]; male, Wistar-Hannover, plasma and urine, iv, urine 0-24 h",11.5 mL/min/kg
same,inhibition at 100 µM,"OAT3; MDCKII-OAT3 cells, probe estrone sulfate, 100 µM islatravir",31%
same,pIC50,"OAT3; OAT3-mediated estrone sulfate uptake, read-out: Islatravir IC50",< 4.00
same,"Maximum Unbound Plasma Concentration (Imax,u) to IC50 Ratio","OAT3; OAT3, 60 mg, Cmax 1.01 µM, fu,p 0.96",<0.010 µM
same,DDI Potential,"OAT3; OAT3 inhibition, FDA, EMA, PMDA guidance",Low risk
same,CL renal,"[3]; plasma and urine, iv, urine 0-24 h",8.7 mL/min/kg
same,Renal Excretion (% Total Plasma Clearance),[3],51%
same,DDI Potential,"MATE2K; MATE2K inhibition, FDA, EMA, PMDA guidance",Low risk
same,pIC50,"MATE2K; MATE2K, metformin uptake, read-out: Islatravir IC50",< 4.12
same,"Maximum Unbound Plasma Concentration (Imax,u) to IC50 Ratio","MATE2K; MATE2K, 60 mg, Cmax 1.01 µM, fu,p 0.96",<0.013 µM
same,time-dependent inhibition,"CYP1A2; CYP1A2, pre-incubation of 10 and 50 µM for up to 30 min",no time-dependent inhibition
same,DDI Potential,CYP1A2; CYP1A2 time dependent inhibition,Low risk ^h
same,pIC50,"CYP1A2; time dependent, CYP1A2, read-out: Islatravir IC50",< 4.30
same,uptake into control vesicles,MDR1 P-gp; [4],5.7 ± 2.1 pmole/mg protein
same,uptake into membrane vesicles containing MDR1 P-gp,MDR1 P-gp; [4],3.7 ± 1.3 pmole/mg protein
same,MDR1 P-gp substrate assessment,MDR1 P-gp; uptake not ATP-dependent,not a substrate of MDR1 P-gp
same,time-dependent inhibition,"CYP2B6; CYP2B6, pre-incubation of 10 and 50 µM for up to 30 min",no time-dependent inhibition
same,DDI Potential,CYP2B6; CYP2B6 time dependent inhibition,Low risk ^h
same,pIC50,"CYP2B6; time dependent, CYP2B6, read-out: Islatravir IC50",< 4.30
